Assay results from patent US20080039431A1, “Method of improving plant growth by reducing viral infections” (priority 2006, published 2008).
Values joined by “and” are separate entries in the source; they are usually repeats but may differ in a detail not shown here. Equal entries are not always repeated.

How the values were obtained:
[1] = tested on: tomato spotted wilt virus (TSWV); test: Non-replicated GLP peanut residue trial, Tifton, Ga. (Example 4); assay type: in vivo; conditions: for Percent row feet infected with TSWV: rated August 22, 525 row ft plot
Method: Cultivation—A non-replicated GLP (good laboratory practice) peanut residue trial was in progress at the Tifton, Ga., location using similar cultivation methods as in Examples 1-3. The planting and in-furrow treatment date was May 26. Prothioconazole treated seed were prepared two weeks prior on May 12. Plots were 525 row ft. Treatments— • Untreated—no in-furrow treatment, chlorothalonil maintenance only for foliar diseases. • Seed treatment, in-furrow, and foliar—prothioconazole seed treatment@10 g active ingredient/100 kg seed plus prothioconazole applied in-furrow@200 g active ingredient/Ha followed by prothioconazole@100 g active ingredient/Ha on July 21, August 4, and August 18. • Foliar only—prothioconazole@200 g active ingredient/Ha on July 21, August 4, and August 18. TSWV rating—For TSWV incidence determination, on August 22 the number of row feet per plot with TSWV symptoms (chlorosis and stunting) was determined for the three treatments. Statistics cannot be run on single-replication trials.

[2] = tested on: tomato spotted wilt virus (TSWV); test: Non-replicated GLP peanut residue trial, Molino, Fla. (Example 5); assay type: in vivo; conditions: for Percent row feet infected with TSWV: Georgia Green, rated August 23, 160 row ft plot
Method: Cultivation—A non-replicated GLP peanut residue trial was conducted in Molino, Fla., using similar methods as in Examples 3 and 4. The cultivar used was Georgia Green. Prothioconazole treated seed were prepared on May 12. Plots were 160 row ft. in length. Treatments— • Untreated—no in-furrow treatment, chlorothalonil maintenance only for foliar diseases. • Seed treatment, in-furrow, and foliar—prothioconazole seed treatment@10 g active ingredient/100 kg seed plus prothioconazole applied in-furrow@200 g active ingredient/Ha followed by a program of three chlorothalonil applications and four applications of prothioconazole@100 g active ingredient/Ha. • Foliar only—A program of three chlorothalonil applications and four applications of prothioconazole@200 g active ingredient/Ha. TSWV rating—For TSWV incidence determination, on August 23 the number of row feet per plot with TSWV symptoms (chlorosis and stunting) was determined for the three treatments. Statistics cannot be run on single replication trials.

[3] = tested on: tomato spotted wilt virus (TSWV); test: Replicated peanut field trials, in-furrow treatment at planting (Examples 1-3); assay type: in vivo, peanut (Arachis hypogaea L.); conditions: for TSWV Incidence (number of symptomatic feet of row per 60 foot plot): 8 replicate plots
Method: Cultivation—Three replicated field trials were conducted at the Bayer CropScience research farm in Tifton, Ga., using standard commercial peanut practices. Prior to planting, fields were flag staked to establish 8 replications per treatment per trial of two rows by 30 ft long (6 ft by 30 ft, 60 row feet total) each. On May 19, two cultivars of peanut (Arachis hypogaea L.), Georgia Green (two fields, Examples 1 and 2) and Carver (one field, Example 3) were planted using a two-row Monosem air planter. During the planting passes a tractor mounted compressed air system was used to spray the in-furrow treatment into the furrow before row closure. All other plots were not treated at planting. Single field passes were used to plant entire fields to ensure a uniform planting depth. Treatments— • Treated—Plots received an in-furrow application of prothioconazole at planting at a rate of 200 g prothioconazole/Ha. Through the season these plots received foliar fungicide maintenance using standard commercial fungicides including chlorothalonil and tebuconazole. • Untreated—Due to standard practices in peanut pesticide testing, each treated plot always included untreated peanut plots adjacent to the treated plots that serve as spacer rows. […] Untreated plots in Examples 1 and 3 received foliar maintenance applications to control foliar diseases. […] TSWV rating—Plots were examined periodically following emergence for differences in appearance. In certain instances, (August 19 data for example), TSWV incidence is determined as the number of row feet with TSWV symptoms (chlorosis and stunting) which was determined for the two treatments.

[4] = tested on: tomato spotted wilt virus (TSWV); test: Tobacco drench / broadcast spray trial (Example 8); assay type: in vivo, tobacco (Nicotiana tabacum); conditions: prothioconazole 0.0084 g ai/plant, imidacloprid 0.01 g/plant (drench), acibenzolar-S-methyl 2.47 g ai/Ha broadcast spray
Text: Cultivation—A trial on tobacco (Nicotiana tabacum) was initiated in Molino, Fla., to see if drenches of prothioconazole alone and in combination with the insecticide imidacloprid could control TSWV in tobacco. Plants of cultivar C-371 Gold were transplanted on April 28 into 9.1 meter plots with three replications. All eight treatments were applied after transplanting on May 1. Foliar treatments were applied as a broadcast spray, while drenches were applied as in Example 6. Acibenzolar-S-methyl is a plant defense activator used to control TSWV in tobacco.
Treatments— • Untreated • Imidacloprid@0.01 g imidacloprid/plant • Imidacloprid@0.015 g Imidacloprid/plant • Prothioconazole@0.0084 g active ingredient/plant • Prothioconazole@0.0084 g active ingredient/plant+Imidacloprid@0.01 g imidacloprid/plant • Prothioconazole@0.0084 g active ingredient/plant+Imidacloprid@0.015 g […] label. • Acibenzolar-S-methyl@2.47 g active ingredient/Ha as a broadcast spray as per label.
TSWV rating—For TSWV incidence determination the percentage of plants with TSWV symptoms (chlorosis and stunting) was determined for the eight treatments as in Example 6.

[5] = tested on: tomato spotted wilt virus (TSWV); test: Bell pepper drench trial (Example 7); assay type: in vivo, bell pepper (Capsicum annum L.); conditions: for Percent control of incidence of TSWV in bell peppers: Abbott's formula; for Percent incidence TSWV in bell peppers: drench, prothioconazole 0.0084 g ai/plant, imidacloprid 0.01 g/plant
Method: Cultivation—A trial on bell pepper (Capsicum annum L.) was initiated in Molino, Fla. to see if drenches of prothioconazole alone and in combination with the insecticide imidacloprid could control TSWV in pepper. Bell pepper plants were transplanted on April 11 into 9.1 meter plots with three replications as in Example 6. Treatments were applied as a drench in 40 ml water per plant (7 days after transplanting) on April 18 as in Example 6.
Treatments— • Untreated—no in-furrow treatment. • Imidacloprid—imidacloprid@0.01 g imidacloprid/plant. • Prothioconazole—prothioconazole@0.0084 g prothioconazole/plant. • Prothioconazole+Imidacloprid—prothioconazole@0.0084 g active ingredient/plant+imidacloprid@0.01 g imidacloprid/plant.
TSWV rating—For TSWV incidence determination, the percentage of plants with TSWV symptoms (chlorosis and stunting) was determined for the four treatments at 21, 29, 38, and 47 days after treatment as in Example 6.
Synergy formula—The Colby formula for proof of synergy was used in Example 7 as in Example 6.

For `OC(Cc1ccccc1Cl)(Cn1nc[nH]c1=S)C1(Cl)CC1` (centres unmarked) [Prothioconazole, prothioconazole], the “Percent row feet infected with TSWV” value ([1]; foliar only 200 g ai/Ha x3) was 30.5%, the “Percent row feet infected with TSWV” value ([1]; seed treatment 10 g ai/100 kg seed + in-furrow 200 g ai/Ha + foliar 100 g ai/Ha x3) was 24.0% and the “Number of row feet infected with TSWV compared with foliar only program or untreated” value ([1]; seed treatment, in-furrow, and foliar applications) was “numerically lower”. The “Percent row feet infected with TSWV” value ([2]; foliar only: three chlorothalonil and four prothioconazole 200 g ai/Ha applications) was 16.25%, the “Percent row feet infected with TSWV” value ([2]; seed treatment 10 g ai/100 kg seed + in-furrow 200 g ai/Ha + three chlorothalonil and four prothioconazole 100 g ai/Ha applications) was 10.6% and the “Number of row feet infected with TSWV compared with foliar only program or chlorothalonil maintenance only” value ([2]; seed treatment, in-furrow, and foliar prothioconazole applications (treatment 2)) was “numerically lower”. For the same compound, the “Reduction of TSWV incidence compared to untreated” value ([3]; Carver trial (Example 3), in-furrow treatment) was “not significant”, the “TSWV Incidence (number of symptomatic feet of row per 60 foot plot)” value ([3]; Example 1, Georgia Green, in-furrow 200 g prothioconazole/Ha at planting with foliar maintenance (chlorothalonil, tebuconazole)) was 18 feet of row per 60 foot plot (2×) and 14 feet of row per 60 foot plot and 19 feet of row per 60 foot plot (2×) and 8 feet of row per 60 foot plot and 12 feet of row per 60 foot plot and 20 feet of row per 60 foot plot and the “TSWV Incidence (number of symptomatic feet of row per 60 foot plot)” value ([3]; Example 2, Georgia Green, in-furrow 200 g prothioconazole/Ha at planting with foliar maintenance, adjacent untreated had no foliar maintenance) was 13 feet of row per 60 foot plot and 25 feet of row per 60 foot plot (2×) and 24 feet of row per 60 foot plot and 17 feet of row per 60 foot plot and 18 feet of row per 60 foot plot and 27 feet of row per 60 foot plot and 20 feet of row per 60 foot plot. For the same compound, the “TSWV Incidence (number of symptomatic feet of row per 60 foot plot)” value ([3]; Example 3, Carver, in-furrow 200 g prothioconazole/Ha at planting with foliar maintenance) was 17 feet of row per 60 foot plot and 8 feet of row per 60 foot plot and 19 feet of row per 60 foot plot and 26 feet of row per 60 foot plot and 12 feet of row per 60 foot plot and 16 feet of row per 60 foot plot and 7 feet of row per 60 foot plot and 9 feet of row per 60 foot plot, the “TSWV incidence in percent of row feet with symptoms compared to untreated controls” value ([3]; Georgia Green (Example 1 and 2), in-furrow treatment) was “significantly lower” and the “Percent incidence TSWV in tobacco” value ([4]; 14 days after treatment) was 32.2%. The “Percent incidence TSWV in tobacco” value ([4]; 21 days after treatment) was 35.0%, the “Percent incidence TSWV in tobacco” value ([4]; 38 days after treatment) was 56.7% and the “Percent control of incidence of TSWV in bell peppers” value (from here on “Percent control of incidence of TSWV”) ([5]; 21 days after treatment) was 24.90%. For the same compound, the “Percent incidence TSWV in bell peppers” value ([5]; 21 days after treatment) was 18.1%, the “Percent control of incidence of TSWV” value ([5]; 29 days after treatment) was 32.20% and the “Percent incidence TSWV in bell peppers” value ([5]; 29 days after treatment) was 31.8%. For the same compound, the “Percent control of incidence of TSWV” value ([5]; 38 days after treatment) was 12.84%, the “Percent incidence TSWV in bell peppers” value ([5]; 38 days after treatment) was 44.8% and the “Percent control of incidence of TSWV” value ([5]; 47 days after treatment) was 6.44%. For the same compound, the “Percent incidence TSWV in bell peppers” value ([5]; 47 days after treatment) was 49.4% and the “Increase of TSWV level from 38 DAT to 47 DAT” value ([5]; bell pepper, untreated increased by 1.4 percent) was “roughly 4.5%”.
